# According to patent publication EP0308279A1, “Water-soluble polysaccharides, process for obtaining them, their use as medicaments and a preparation containing them” (LIPHA, LYONNAISE INDUSTRIELLE PHARMACEUTIQUE, priority 1987, dated 1989):
# System: macrophages alvéolaires de rats Kyoto
# Test: Activation of alveolar macrophages (cytostatic/cytotoxic activity towards tumour target cells, tritiated thymidine incorporation)
# Assay type: cell-based, rat
# Details: mean of 3 measurements
# Experimental: Ce test met en évidence le phénomène d'activation des macrophages par une mesure de leur activité cytostatique ou cytotoxique envers des cellules de lignée tumorale.
# Le test de mesure de l'activation des macrophages consiste à traiter une culture de macrophages alvéolaires ou péritonéaux de rat ou de souris ou de monocytes humaines par des doses des polysaccharides de l'invention variant entre 0,001 et 50 µg/ml. Il est réalisé de la manière suivante :
# 10⁵ macrophages de souris de souche Balb c, Swiss, C57/B16 ou DBA/2 ou de rat de souche Kyoto ou Wistar sont placés dans une plaque de microtitration dans du milieu de culture complété ou non par du sérum artificiel et de 1 à 10 µg/ml de polymyxine.
# On ajoute les polysaccharides de l'invention ou le tampon correspondant sans polysaccharides comme contrôle négatif. Les cellules sont incubées 24 heures à 37°C. On élimine ensuite le surnageant et lave les cellules avec du milieu de culture.
# On ajoute alors les cellules cibles tumorales L1210 ou P815 dans du milieu complet. Le rapport macrophages/cellules cibles est de 10. On incube alors la culture durant 24 heures à 37°C. Puis on ajoute 1 - 2 x 10⁴Bq de thymidine tritiée par puits. Les cellules sont récupérées après 4 heures d'incubation à 37°C sur un filtre en fibre de verre. Après séchage des filtres, la radioactivité est mesurée en présence d'un mélange scintillant.
# Les résultats correspondent à une moyenne de 3 mesures. Le pourcentage d'activation est exprimé : [formula] R : radioactivité incorporée par les cellules tumorales cultivées en présence de macrophages de référence. S : radioactivité incorporée par les cellules tumorales cultivées en présence de macrophages stimulés.
structure (smiles),measurement,setting,value
"CC(=O)N[C@H]1C(O)O[C@H](CO)[C@@H](O)[C@@H]1O[C@H](C)C(=O)N[C@@H](C)C(=O)N[C@H](CCC(=O)O)C(N)=O (mixture of isomers) [Muramyl dipeptide (MDP), Muramyl dipeptide]",% d'activation des macrophages alvéolaires de rats Kyoto.,"dose 0,01 µg/ml",28%
same,% d'activation des macrophages alvéolaires de rats Kyoto.,dose 1 µg/ml,90%
same,% d'activation des macrophages alvéolaires de rats Kyoto.,dose 10 µg/ml,92%
